Reference: ChEMBL document CHEMBL3991601, “The target landscape of clinical kinase drugs” (Science, 2017)
Active and inactive are the calls of the source. For most assays here, no stated cut-off is given here; in the data, actives have a measured Kd and inactives only a lower limit.

The molecules below were run against Cyclin-dependent kinase 6 (Homo sapiens, UniProt Q00534). Details: not given.
Sequence of Cyclin-dependent kinase 6 (Q00534 whole entry): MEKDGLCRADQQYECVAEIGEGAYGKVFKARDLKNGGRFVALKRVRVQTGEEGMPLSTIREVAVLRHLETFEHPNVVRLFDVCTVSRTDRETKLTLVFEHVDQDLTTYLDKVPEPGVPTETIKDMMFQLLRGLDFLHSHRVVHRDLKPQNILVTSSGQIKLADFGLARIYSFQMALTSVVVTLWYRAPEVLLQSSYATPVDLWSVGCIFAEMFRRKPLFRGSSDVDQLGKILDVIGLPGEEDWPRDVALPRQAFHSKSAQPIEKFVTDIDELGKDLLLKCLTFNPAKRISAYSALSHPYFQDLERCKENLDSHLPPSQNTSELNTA
With `CN1N=C(N)c2cn([C@@H]3O[C@H](COP(=O)(O)O)[C@@H](O)[C@H]3O)c3ncnc1c23` [TRICIRIBINE PHOSPHATE] the Kd was > 30 µM (inactive). With `CC(C)Nc1cc(-c2c[nH]c(C(=O)N[C@H](CO)c3cccc(Cl)c3)c2)c(Cl)cn1` [ULIXERTINIB] the Kd was > 30 µM (inactive). With `CCn1c(=O)c(-c2cc[nH]n2)cc2c(C)nc(N)nc21` [VOXTALISIB] the Kd was > 30 µM (inactive). For `O=C(Nc1ccc(-c2ccnc(Nc3ccc(N4CCOCC4)cc3)n2)cc1)C1CCCN1` (centres undefined) [XL-019], the Kd was > 30 µM (inactive).

These molecules were tested against Dual specificity tyrosine-phosphorylation-regulated kinase 1A (Homo sapiens, UniProt Q13627). Details: not given.
`CN1N=C(N)c2cn([C@@H]3O[C@H](COP(=O)(O)O)[C@@H](O)[C@H]3O)c3ncnc1c23` [TRICIRIBINE PHOSPHATE] was tested, and the Kd was > 30 µM (inactive). With `CC(C)Nc1cc(-c2c[nH]c(C(=O)N[C@H](CO)c3cccc(Cl)c3)c2)c(Cl)cn1` [ULIXERTINIB] the Kd was > 30 µM (inactive). In the case of `CCn1c(=O)c(-c2cc[nH]n2)cc2c(C)nc(N)nc21` [VOXTALISIB], the Kd is reported as > 30 µM (inactive). In the case of `O=C(Nc1ccc(-c2ccnc(Nc3ccc(N4CCOCC4)cc3)n2)cc1)C1CCCN1` (centres undefined) [XL-019], the Kd is reported as > 30 µM (inactive).

Each molecule was assayed against Glycogen synthase kinase-3 beta (Homo sapiens, UniProt P49841). Details: not given.
Sequence of Glycogen synthase kinase-3 beta (P49841 whole entry): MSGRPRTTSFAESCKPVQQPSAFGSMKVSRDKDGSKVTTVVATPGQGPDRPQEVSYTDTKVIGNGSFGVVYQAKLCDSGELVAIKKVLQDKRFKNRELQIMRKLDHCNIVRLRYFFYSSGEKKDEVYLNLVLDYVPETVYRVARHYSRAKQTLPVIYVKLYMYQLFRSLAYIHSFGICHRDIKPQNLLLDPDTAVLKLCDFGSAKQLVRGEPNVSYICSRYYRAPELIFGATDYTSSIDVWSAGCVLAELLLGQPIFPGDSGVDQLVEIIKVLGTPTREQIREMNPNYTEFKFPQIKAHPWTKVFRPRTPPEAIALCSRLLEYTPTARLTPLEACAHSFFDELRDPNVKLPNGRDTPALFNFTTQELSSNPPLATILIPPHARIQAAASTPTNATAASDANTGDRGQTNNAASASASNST
In the case of `CN1N=C(N)c2cn([C@@H]3O[C@H](COP(=O)(O)O)[C@@H](O)[C@H]3O)c3ncnc1c23` [TRICIRIBINE PHOSPHATE], the Kd is reported as > 30 µM (inactive). For `CC(C)Nc1cc(-c2c[nH]c(C(=O)N[C@H](CO)c3cccc(Cl)c3)c2)c(Cl)cn1` [ULIXERTINIB], the Kd was > 30 µM (inactive). `CCn1c(=O)c(-c2cc[nH]n2)cc2c(C)nc(N)nc21` [VOXTALISIB] was tested, and the Kd was > 30 µM (inactive). With `O=C(Nc1ccc(-c2ccnc(Nc3ccc(N4CCOCC4)cc3)n2)cc1)C1CCCN1` (centres undefined) [XL-019] the Kd was > 30 µM (inactive).

These molecules were tested against Mitogen-activated protein kinase 3 (Homo sapiens, UniProt P27361). Details: not given.
Sequence of Mitogen-activated protein kinase 3 (P27361 whole entry): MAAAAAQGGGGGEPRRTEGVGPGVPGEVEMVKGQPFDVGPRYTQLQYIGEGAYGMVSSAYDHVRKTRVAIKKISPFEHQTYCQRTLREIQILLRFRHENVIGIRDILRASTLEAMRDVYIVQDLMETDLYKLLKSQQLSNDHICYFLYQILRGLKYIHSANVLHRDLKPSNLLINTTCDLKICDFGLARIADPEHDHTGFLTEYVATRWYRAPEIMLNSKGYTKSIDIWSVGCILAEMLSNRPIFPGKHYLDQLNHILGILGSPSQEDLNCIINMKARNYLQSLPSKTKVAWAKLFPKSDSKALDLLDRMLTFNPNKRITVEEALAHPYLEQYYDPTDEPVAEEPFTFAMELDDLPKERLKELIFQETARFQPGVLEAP
`CN1N=C(N)c2cn([C@@H]3O[C@H](COP(=O)(O)O)[C@@H](O)[C@H]3O)c3ncnc1c23` [TRICIRIBINE PHOSPHATE] was tested, and the Kd was > 30 µM (inactive). `CC(C)Nc1cc(-c2c[nH]c(C(=O)N[C@H](CO)c3cccc(Cl)c3)c2)c(Cl)cn1` [ULIXERTINIB] was tested, and the Kd was 0.16 µM (active). `CCn1c(=O)c(-c2cc[nH]n2)cc2c(C)nc(N)nc21` [VOXTALISIB] was tested, and the Kd was > 30 µM (inactive). In the case of `O=C(Nc1ccc(-c2ccnc(Nc3ccc(N4CCOCC4)cc3)n2)cc1)C1CCCN1` (centres undefined) [XL-019], the Kd is reported as > 30 µM (inactive).

Each molecule was assayed against T1, RNA cytidine acetyltransferase (Homo sapiens, UniProt Q9H0A0). Details: not given.
T1 sequence (Q9H0A0 whole entry): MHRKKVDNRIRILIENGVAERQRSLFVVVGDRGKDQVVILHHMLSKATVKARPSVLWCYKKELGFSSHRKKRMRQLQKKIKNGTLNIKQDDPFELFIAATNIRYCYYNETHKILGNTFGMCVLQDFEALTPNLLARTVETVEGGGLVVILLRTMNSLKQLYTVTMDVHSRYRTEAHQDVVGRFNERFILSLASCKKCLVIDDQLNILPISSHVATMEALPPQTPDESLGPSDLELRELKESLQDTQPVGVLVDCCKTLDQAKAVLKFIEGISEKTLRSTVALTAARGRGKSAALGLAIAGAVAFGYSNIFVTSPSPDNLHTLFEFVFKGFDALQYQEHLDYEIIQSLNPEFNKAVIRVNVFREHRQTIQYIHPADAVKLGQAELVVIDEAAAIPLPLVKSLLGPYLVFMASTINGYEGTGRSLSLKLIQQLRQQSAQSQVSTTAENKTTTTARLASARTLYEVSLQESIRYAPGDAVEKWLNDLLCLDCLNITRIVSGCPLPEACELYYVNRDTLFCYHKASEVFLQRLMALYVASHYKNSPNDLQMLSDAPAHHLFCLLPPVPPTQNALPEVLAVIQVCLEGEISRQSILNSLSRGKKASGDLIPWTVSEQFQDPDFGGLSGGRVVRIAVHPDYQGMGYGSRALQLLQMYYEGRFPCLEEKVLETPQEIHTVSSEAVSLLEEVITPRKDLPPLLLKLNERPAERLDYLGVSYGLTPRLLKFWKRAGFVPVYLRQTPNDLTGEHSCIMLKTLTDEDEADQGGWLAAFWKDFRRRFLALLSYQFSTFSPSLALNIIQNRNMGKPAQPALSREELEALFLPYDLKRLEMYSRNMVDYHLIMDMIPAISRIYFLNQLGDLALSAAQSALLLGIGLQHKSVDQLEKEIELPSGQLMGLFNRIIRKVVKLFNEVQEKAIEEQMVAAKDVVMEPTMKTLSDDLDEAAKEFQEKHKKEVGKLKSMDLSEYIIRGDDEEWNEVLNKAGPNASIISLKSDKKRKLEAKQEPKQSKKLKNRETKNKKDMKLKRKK
With `CN1N=C(N)c2cn([C@@H]3O[C@H](COP(=O)(O)O)[C@@H](O)[C@H]3O)c3ncnc1c23` [TRICIRIBINE PHOSPHATE] the Kd was > 30 µM (inactive). With `CC(C)Nc1cc(-c2c[nH]c(C(=O)N[C@H](CO)c3cccc(Cl)c3)c2)c(Cl)cn1` [ULIXERTINIB] the Kd was > 30 µM (inactive). For `CCn1c(=O)c(-c2cc[nH]n2)cc2c(C)nc(N)nc21` [VOXTALISIB], the Kd was > 30 µM (inactive). `O=C(Nc1ccc(-c2ccnc(Nc3ccc(N4CCOCC4)cc3)n2)cc1)C1CCCN1` (centres undefined) [XL-019] was tested, and the Kd was > 30 µM (inactive).

Each molecule was assayed against Platelet-derived growth factor receptor beta (Homo sapiens, UniProt P09619). Details: not given.
Sequence of Platelet-derived growth factor receptor beta (P09619 whole entry): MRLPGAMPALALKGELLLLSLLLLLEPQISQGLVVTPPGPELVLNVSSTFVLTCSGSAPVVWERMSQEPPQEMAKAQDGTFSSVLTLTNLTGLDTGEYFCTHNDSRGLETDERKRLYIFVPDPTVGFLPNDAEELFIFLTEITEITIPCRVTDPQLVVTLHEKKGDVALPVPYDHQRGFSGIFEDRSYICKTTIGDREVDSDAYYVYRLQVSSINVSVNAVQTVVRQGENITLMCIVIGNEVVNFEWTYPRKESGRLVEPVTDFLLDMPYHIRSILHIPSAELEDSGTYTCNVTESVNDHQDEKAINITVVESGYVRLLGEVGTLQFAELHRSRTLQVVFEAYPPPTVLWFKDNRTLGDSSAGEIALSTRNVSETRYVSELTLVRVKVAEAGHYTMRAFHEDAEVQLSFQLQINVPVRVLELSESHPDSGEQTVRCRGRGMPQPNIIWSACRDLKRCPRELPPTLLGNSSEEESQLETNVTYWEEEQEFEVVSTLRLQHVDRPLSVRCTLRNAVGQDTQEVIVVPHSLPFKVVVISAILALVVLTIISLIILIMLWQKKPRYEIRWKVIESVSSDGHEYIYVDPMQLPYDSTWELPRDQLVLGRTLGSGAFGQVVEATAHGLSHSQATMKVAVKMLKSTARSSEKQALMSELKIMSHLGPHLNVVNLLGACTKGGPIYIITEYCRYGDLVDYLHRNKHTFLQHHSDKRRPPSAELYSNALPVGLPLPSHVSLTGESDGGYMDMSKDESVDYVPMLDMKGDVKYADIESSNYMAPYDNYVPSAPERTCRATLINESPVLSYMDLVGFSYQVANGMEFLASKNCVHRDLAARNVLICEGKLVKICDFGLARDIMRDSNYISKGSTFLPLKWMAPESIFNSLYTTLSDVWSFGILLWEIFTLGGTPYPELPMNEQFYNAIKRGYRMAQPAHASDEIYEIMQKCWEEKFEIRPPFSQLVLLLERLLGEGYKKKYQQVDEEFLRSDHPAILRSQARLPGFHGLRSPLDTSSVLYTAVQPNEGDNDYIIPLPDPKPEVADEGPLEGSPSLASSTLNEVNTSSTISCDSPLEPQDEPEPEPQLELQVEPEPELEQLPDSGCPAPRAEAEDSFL
`CN1N=C(N)c2cn([C@@H]3O[C@H](COP(=O)(O)O)[C@@H](O)[C@H]3O)c3ncnc1c23` [TRICIRIBINE PHOSPHATE] was tested, and the Kd was > 30 µM (inactive). `CC(C)Nc1cc(-c2c[nH]c(C(=O)N[C@H](CO)c3cccc(Cl)c3)c2)c(Cl)cn1` [ULIXERTINIB] was tested, and the Kd was > 30 µM (inactive). `CCn1c(=O)c(-c2cc[nH]n2)cc2c(C)nc(N)nc21` [VOXTALISIB] was tested, and the Kd was > 30 µM (inactive). With `O=C(Nc1ccc(-c2ccnc(Nc3ccc(N4CCOCC4)cc3)n2)cc1)C1CCCN1` (centres undefined) [XL-019] the Kd was 1.12 µM (active).

These molecules were tested against Rho-associated protein kinase 2 (Homo sapiens, UniProt O75116). Details: not given.
Sequence of Rho-associated protein kinase 2 (O75116 whole entry): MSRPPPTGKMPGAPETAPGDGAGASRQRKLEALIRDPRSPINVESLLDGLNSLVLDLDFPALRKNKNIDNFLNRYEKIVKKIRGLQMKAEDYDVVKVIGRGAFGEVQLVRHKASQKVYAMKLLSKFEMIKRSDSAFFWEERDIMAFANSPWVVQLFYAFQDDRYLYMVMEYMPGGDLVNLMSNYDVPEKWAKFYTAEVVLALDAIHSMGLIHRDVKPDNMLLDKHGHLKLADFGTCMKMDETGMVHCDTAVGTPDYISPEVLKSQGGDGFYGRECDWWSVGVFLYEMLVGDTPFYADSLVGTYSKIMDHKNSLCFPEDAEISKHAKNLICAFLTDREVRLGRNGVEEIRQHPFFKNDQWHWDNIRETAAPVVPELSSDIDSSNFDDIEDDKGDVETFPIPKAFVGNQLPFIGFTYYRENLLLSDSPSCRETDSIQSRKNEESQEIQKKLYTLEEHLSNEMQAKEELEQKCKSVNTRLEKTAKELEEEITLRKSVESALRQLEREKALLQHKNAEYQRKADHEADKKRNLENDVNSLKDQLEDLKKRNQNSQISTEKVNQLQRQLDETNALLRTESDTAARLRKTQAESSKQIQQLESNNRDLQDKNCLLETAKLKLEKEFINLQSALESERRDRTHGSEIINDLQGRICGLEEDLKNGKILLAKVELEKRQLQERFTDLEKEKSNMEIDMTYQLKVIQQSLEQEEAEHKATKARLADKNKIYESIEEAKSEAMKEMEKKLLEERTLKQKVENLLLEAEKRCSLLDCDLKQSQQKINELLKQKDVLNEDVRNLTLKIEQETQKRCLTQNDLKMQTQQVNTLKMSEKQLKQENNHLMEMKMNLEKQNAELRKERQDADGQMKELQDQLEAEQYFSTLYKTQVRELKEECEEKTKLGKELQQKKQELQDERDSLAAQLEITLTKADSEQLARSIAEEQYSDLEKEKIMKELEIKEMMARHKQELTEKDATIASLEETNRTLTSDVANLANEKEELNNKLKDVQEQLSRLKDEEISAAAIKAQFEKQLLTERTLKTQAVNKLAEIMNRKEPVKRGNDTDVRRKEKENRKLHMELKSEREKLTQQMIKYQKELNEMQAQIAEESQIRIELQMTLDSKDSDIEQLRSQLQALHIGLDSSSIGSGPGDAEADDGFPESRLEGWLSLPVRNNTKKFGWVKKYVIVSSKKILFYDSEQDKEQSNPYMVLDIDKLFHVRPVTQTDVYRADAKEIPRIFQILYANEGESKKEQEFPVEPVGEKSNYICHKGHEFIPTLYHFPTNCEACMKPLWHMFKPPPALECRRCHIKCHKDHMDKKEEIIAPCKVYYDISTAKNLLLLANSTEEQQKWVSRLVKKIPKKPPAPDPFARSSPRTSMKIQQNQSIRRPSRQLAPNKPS
For `CN1N=C(N)c2cn([C@@H]3O[C@H](COP(=O)(O)O)[C@@H](O)[C@H]3O)c3ncnc1c23` [TRICIRIBINE PHOSPHATE], the Kd was > 30 µM (inactive). `CC(C)Nc1cc(-c2c[nH]c(C(=O)N[C@H](CO)c3cccc(Cl)c3)c2)c(Cl)cn1` [ULIXERTINIB] was tested, and the Kd was > 30 µM (inactive). For `CCn1c(=O)c(-c2cc[nH]n2)cc2c(C)nc(N)nc21` [VOXTALISIB], the Kd was > 30 µM (inactive). With `O=C(Nc1ccc(-c2ccnc(Nc3ccc(N4CCOCC4)cc3)n2)cc1)C1CCCN1` (centres undefined) [XL-019] the Kd was 3.97 µM (active).

The molecules below were run against Ribosomal protein S6 kinase beta-1 (Homo sapiens, UniProt P23443). Details: not given.
Sequence of Ribosomal protein S6 kinase beta-1 (P23443 whole entry): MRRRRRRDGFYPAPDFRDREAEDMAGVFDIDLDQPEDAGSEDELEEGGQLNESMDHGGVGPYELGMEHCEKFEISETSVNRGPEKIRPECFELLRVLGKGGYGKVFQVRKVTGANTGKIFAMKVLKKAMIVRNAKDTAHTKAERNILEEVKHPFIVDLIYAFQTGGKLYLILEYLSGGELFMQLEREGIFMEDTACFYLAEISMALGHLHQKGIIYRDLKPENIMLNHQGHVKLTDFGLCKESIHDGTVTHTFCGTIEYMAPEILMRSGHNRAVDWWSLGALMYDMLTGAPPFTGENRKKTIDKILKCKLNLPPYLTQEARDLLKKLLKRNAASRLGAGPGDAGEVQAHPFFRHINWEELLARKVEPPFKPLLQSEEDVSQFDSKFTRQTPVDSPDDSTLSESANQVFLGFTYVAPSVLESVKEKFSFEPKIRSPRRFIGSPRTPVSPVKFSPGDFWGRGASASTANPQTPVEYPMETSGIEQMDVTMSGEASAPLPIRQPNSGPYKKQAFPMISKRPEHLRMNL
With `CN1N=C(N)c2cn([C@@H]3O[C@H](COP(=O)(O)O)[C@@H](O)[C@H]3O)c3ncnc1c23` [TRICIRIBINE PHOSPHATE] the Kd was > 30 µM (inactive). `CC(C)Nc1cc(-c2c[nH]c(C(=O)N[C@H](CO)c3cccc(Cl)c3)c2)c(Cl)cn1` [ULIXERTINIB] was tested, and the Kd was > 30 µM (inactive). In the case of `CCn1c(=O)c(-c2cc[nH]n2)cc2c(C)nc(N)nc21` [VOXTALISIB], the Kd is reported as > 30 µM (inactive). For `O=C(Nc1ccc(-c2ccnc(Nc3ccc(N4CCOCC4)cc3)n2)cc1)C1CCCN1` (centres undefined) [XL-019], the Kd was > 30 µM (inactive).

These molecules were tested against T2, Signal recognition particle receptor subunit alpha (Homo sapiens, UniProt P08240). Details: not given.
T2 sequence (P08240 whole entry): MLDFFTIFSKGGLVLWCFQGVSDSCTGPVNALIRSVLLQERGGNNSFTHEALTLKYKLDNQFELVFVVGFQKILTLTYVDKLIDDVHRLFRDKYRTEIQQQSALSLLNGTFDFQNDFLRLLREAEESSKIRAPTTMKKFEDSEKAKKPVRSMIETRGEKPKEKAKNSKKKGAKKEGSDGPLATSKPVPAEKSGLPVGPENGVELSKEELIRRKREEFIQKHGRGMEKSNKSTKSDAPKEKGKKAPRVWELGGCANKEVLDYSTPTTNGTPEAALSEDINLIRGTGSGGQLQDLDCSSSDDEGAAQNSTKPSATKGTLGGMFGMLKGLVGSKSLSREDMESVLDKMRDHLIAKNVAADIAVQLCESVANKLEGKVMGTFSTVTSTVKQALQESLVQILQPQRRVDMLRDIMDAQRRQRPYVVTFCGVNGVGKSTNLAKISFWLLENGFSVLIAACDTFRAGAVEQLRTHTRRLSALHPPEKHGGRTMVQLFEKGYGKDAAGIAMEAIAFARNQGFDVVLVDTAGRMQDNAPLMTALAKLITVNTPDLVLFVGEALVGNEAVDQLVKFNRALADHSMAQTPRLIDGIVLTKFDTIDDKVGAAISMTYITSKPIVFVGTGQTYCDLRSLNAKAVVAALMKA
With `CN1N=C(N)c2cn([C@@H]3O[C@H](COP(=O)(O)O)[C@@H](O)[C@H]3O)c3ncnc1c23` [TRICIRIBINE PHOSPHATE] the Kd was > 30 µM (inactive). In the case of `CC(C)Nc1cc(-c2c[nH]c(C(=O)N[C@H](CO)c3cccc(Cl)c3)c2)c(Cl)cn1` [ULIXERTINIB], the Kd is reported as > 30 µM (inactive). `CCn1c(=O)c(-c2cc[nH]n2)cc2c(C)nc(N)nc21` [VOXTALISIB] was tested, and the Kd was > 30 µM (inactive). `O=C(Nc1ccc(-c2ccnc(Nc3ccc(N4CCOCC4)cc3)n2)cc1)C1CCCN1` (centres undefined) [XL-019] was tested, and the Kd was > 30 µM (inactive).

These molecules were tested against T3, TGF-beta receptor type-1 (Homo sapiens, UniProt P36897). Details: not given.
T3 sequence (P36897 whole entry): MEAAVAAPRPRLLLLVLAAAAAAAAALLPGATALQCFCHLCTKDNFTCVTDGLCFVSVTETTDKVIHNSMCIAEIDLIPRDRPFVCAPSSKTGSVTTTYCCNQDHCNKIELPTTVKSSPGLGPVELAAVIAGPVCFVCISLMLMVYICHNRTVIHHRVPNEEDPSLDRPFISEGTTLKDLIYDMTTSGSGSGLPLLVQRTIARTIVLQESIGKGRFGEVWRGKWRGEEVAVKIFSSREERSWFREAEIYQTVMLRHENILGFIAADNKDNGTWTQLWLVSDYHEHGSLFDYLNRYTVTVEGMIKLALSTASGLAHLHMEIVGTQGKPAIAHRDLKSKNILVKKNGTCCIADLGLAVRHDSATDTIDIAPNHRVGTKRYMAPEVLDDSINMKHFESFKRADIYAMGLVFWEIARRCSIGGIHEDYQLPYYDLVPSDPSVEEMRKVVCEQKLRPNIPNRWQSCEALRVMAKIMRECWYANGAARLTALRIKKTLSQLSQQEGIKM
`CN1N=C(N)c2cn([C@@H]3O[C@H](COP(=O)(O)O)[C@@H](O)[C@H]3O)c3ncnc1c23` [TRICIRIBINE PHOSPHATE] was tested, and the Kd was > 30 µM (inactive). For `CC(C)Nc1cc(-c2c[nH]c(C(=O)N[C@H](CO)c3cccc(Cl)c3)c2)c(Cl)cn1` [ULIXERTINIB], the Kd was > 30 µM (inactive). In the case of `CCn1c(=O)c(-c2cc[nH]n2)cc2c(C)nc(N)nc21` [VOXTALISIB], the Kd is reported as > 30 µM (inactive). With `O=C(Nc1ccc(-c2ccnc(Nc3ccc(N4CCOCC4)cc3)n2)cc1)C1CCCN1` (centres undefined) [XL-019] the Kd was > 30 µM (inactive).

These molecules were tested against T4, Uncharacterized protein FLJ45252 (Homo sapiens, UniProt Q6ZSR9). Details: read-out: Kd apparent; k-562, colo 205, sk-n-be(2) and mv-4-11.
T4 sequence (Q6ZSR9 whole entry): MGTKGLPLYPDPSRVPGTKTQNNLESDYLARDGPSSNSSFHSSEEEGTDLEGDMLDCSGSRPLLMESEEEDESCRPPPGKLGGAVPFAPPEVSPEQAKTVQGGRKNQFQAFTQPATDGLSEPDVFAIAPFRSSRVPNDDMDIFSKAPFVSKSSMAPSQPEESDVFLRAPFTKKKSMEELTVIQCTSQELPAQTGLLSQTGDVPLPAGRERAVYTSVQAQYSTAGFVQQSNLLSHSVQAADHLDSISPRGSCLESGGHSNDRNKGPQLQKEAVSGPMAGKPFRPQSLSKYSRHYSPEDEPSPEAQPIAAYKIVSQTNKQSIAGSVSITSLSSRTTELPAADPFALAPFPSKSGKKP
In the case of `CN1N=C(N)c2cn([C@@H]3O[C@H](COP(=O)(O)O)[C@@H](O)[C@H]3O)c3ncnc1c23` [TRICIRIBINE PHOSPHATE], the Kd is reported as > 30 µM (inactive). For `CC(C)Nc1cc(-c2c[nH]c(C(=O)N[C@H](CO)c3cccc(Cl)c3)c2)c(Cl)cn1` [ULIXERTINIB], the Kd was > 30 µM (inactive). With `CCn1c(=O)c(-c2cc[nH]n2)cc2c(C)nc(N)nc21` [VOXTALISIB] the Kd was > 30 µM (inactive). For `O=C(Nc1ccc(-c2ccnc(Nc3ccc(N4CCOCC4)cc3)n2)cc1)C1CCCN1` (centres undefined) [XL-019], the Kd was 0.007 µM (active).
